Data reported in US20250179050A1, “POLYMORPH AS THYROID HORMONE RECEPTOR AGONISTS AND USE THEREOF” (XIZANG HAISCO PHARMACEUTICAL CO., LTD., priority 2022, published 2025).

Tests used:
Format in all cases: physicochemical
[1] = Stability test 2: 40° C.±2° C., 75% RH±5% RH, HPLC related substances and crystal form; settings: for Crystal form / Related Substances (%) Maximum individual impurity / Related Substances (%) Total impurity: 40° C.±2° C.
Method: The Form C sample was measured using the HPLC method at 40° C.±2° C., 75% RH±5% RH at months 0, 1, 2, 3, and 6 using a double layer pharmaceutical low density polyethylene bag as an inner wrap and a polyester/aluminum/polyethylene pharmaceutical composite bag as an outer wrap.

[2] = Dynamic moisture sorption and desorption analysis (DVS)
Method: Dynamic Moisture Sorption and Desorption Analysis The dynamic moisture sorption and desorption analysis was determined using DVS Intrinsic (SMS, UK). The test was carried out in a gradient mode with a humidity change of 50%-95%-0%-50%, and a humidity change of 10% per gradient in the range of 0% to 90%, and the gradient endpoint was determined in dm/dt, with the gradient endpoint being dm/dt less than 0.002% and held for 10 minutes. After the test was complete, XRPD analysis of the sample was carried out to confirm whether the solid morphology has changed.

[3] = Stability test 3: 5° C.±3° C., HPLC related substances; settings: for Crystal form / Related Substances (%) Maximum individual impurity / Related Substances (%) Total impurity: 5° C.±3° C.
Method: The Form C sample was measured using the HPLC method at 5° C.±3° C. at months 0, 3, 6, 9, and 12 using a double layer pharmaceutical low density polyethylene bag as an inner wrap and a polyester/aluminum/polyethylene pharmaceutical composite bag as an outer wrap.

[4] = Stability test 5: 30° C.±2° C., 65% RH±5% RH, HPLC related substances; settings: for Crystal form / Related Substances (%) Maximum individual impurity / Related Substances (%) Total impurity: 30° C.±2° C.
Method: The Form C sample was measured using the HPLC method at 30° C.±2° C., 65% RH±5% RH at months 0, 3, 6, 9, and 12 using a double layer pharmaceutical low density polyethylene bag as an inner wrap and a polyester/aluminum/polyethylene pharmaceutical composite bag as an outer wrap.

[5] = Stability test 4: 25° C.±2° C., 60% RH±5% RH, HPLC related substances; settings: for Crystal form / Related Substances (%) Maximum individual impurity / Related Substances (%) Total impurity: 25° C.±2° C.
Method: The Form C sample was measured using the HPLC method at 25° C.±2° C., 60% RH±5% RH at months 0, 3, 6, 9, and 12 using a double layer pharmaceutical low density polyethylene bag as an inner wrap and a polyester/aluminum/polyethylene pharmaceutical composite bag as an outer wrap.

[6] = Stability test 1: high temperature, high humidity, light, accelerated conditions, XRPD; settings: 15 days
Method: Around 20 mg of samples were weighed into weighing bottles, stored under high temperature (60° C.), high humidity (25° C., 92.5% RH), light (25° C., 4500 Lux), accelerated (40° C., 75% RH) conditions, respectively, and samples were collected at days 7 and 15 for XRPD characterization.

[7] = Crystal form on leaving to stand at room temperature; settings: room temperature for 3 days
Method: To 100 mg of the compound of formula I prepared in Example 1, 1 ml of methanol was added and heated to reflux. 1 ml of acetonitrile was added dropwise, slowly cooled to room temperature, stirred for 3-5 h and centrifuged, and the resulting solid was dried under vacuum overnight at room temperature to give Form U. Form U of the compound of formula I was characterized by XRPD, DSC and TGA, as shown in FIGS. 41-42, respectively. […] Based on the integration results, the roughly estimated mass percentage is about 5.2%. In summary, Form U is a solvate of acetonitrile in a ratio of 1:1 of the compound to acetonitrile.

[8] = Thermal crystal transformation test (hot stage, XRPD)
Method: The present invention further provides a method for preparing the polymorph of any one of Form A to Form Z, including: • (1) suspension method: adding a crude free base of the compound of formula I (which can be prepared according to the methods described in WO 2019240938 A1) to a selected single or binary solvent until a suspension is formed and stirring same under suspension at room temperature to 50° C. for a period of time (e.g., 1 h to 3 days, or 2 h to 24 h, or 2 h to 12 h, or 3 h to 5 h), and then centrifuging and separating the suspension, followed by drying, to obtain the product; or • (2) Anti-solvent crystallization method: adding a crude free base of the compound of formula I to an appropriate amount of a good solvent until completely dissolved, taking an amount of the solution and dropwise adding same to a poor solvent or dropwise adding a poor solvent to the solution, and stirring same to precipitate a solid, followed by separation and drying to obtain the product; or • (3) cooling method: adding a crude free base of the compound of formula I to an appropriate amount of a solvent at 50-80° C. until the solid is just completely dissolved, and transferring the solution to an environment at room temperature for cooling, followed by leaving to stand or crystallization under stirring, separation and drying to obtain the product; or • (4) vapor diffusion method: dropwise adding an appropriate amount of a good solvent to an amount of a crude free base of the compound of formula I at room temperature to completely dissolve the sample or formulating same as a saturated solution of a good solvent; and separately taking an amount of the solution, and leaving the clear solution to stand in a poor solvent atmosphere at room temperature until a solid precipitates out, followed by separation, to obtain the product; or • (5) thermal crystal transformation method: placing an amount of the sample on a glass plate on a hot stage, heating same to the target temperature at a rate (e.g., 5-20° C./min, or 10-15° C./min), and maintaining the temperature for a period of time (e.g., 0.5-5 min, or 1-3 min, or 1-2 min), followed by naturally cooling down to room temperature to obtain a solid.
The different crystal forms, as raw materials, were heated to the target temperature on a hot table and held for 1 min, and cooled to room temperature to obtain solids for the XRPD test.

With `[2H]C([2H])([2H])[C@@H]1CCc2c(Oc3c(Cl)cc(-n4nc(C#N)c(=O)[nH]c4=O)cc3Cl)n[nH]c(=O)c21` [Form C, (R)-2-(3,5-dichloro-4-((7-(methyl-d3)-1-oxo-2,5,6,7-tetrahydro-1H-cyclopenta [d]pyridazin-4-yl)oxy)phenyl)-3,5-dioxo-2,3,4,5-tetrahydro-1,2,4-triazine-6-carbonitrile] the Crystal form ([1]; 0 months) was “Form C”, the “Related Substances (%) Maximum individual impurity” value ([1]; 0 months) was 0.05% and the “Related Substances (%) Total impurity” value ([1]; 0 months) was 0.26%. The Crystal form ([1]; 1 month) was “Form C”, the “Related Substances (%) Maximum individual impurity” value ([1]; 1 month) was 0.05% and the “Related Substances (%) Total impurity” value ([1]; 1 month) was 0.25%. For the same compound, the Crystal form ([1]; 2 months) was “Form C”, the “Related Substances (%) Maximum individual impurity” value ([1]; 2 months) was 0.05% and the “Related Substances (%) Total impurity” value ([1]; 2 months) was 0.26%. For the same compound, the Crystal form ([1]; 3 months) was “Form C”, the “Related Substances (%) Maximum individual impurity” value ([1]; 3 months) was 0.05% and the “Related Substances (%) Total impurity” value ([1]; 3 months) was 0.26%. The Crystal form ([1]; 6 months) was “Form C”, the “Related Substances (%) Maximum individual impurity” value ([1]; 6 months) was 0.05% and the “Related Substances (%) Total impurity” value ([1]; 6 months) was 0.28%. The “stability (related substances)” value ([1]; within 6 months at 40° C.±2° C.) was “good stability”, the hygroscopicity ([2]; DVS 50%-95%-0%-50% humidity) was “almost no hygroscopicity” and the DVS weight loss ([2]; at 0% humidity) was 0.13%. The DVS weight gain ([2]; at 95% humidity) was 0.20%, the “crystal form after the DVS test (XRPD)” value ([2]; samples after the DVS test) was “no change in crystal form” and the Crystal form ([3]; 0 months) was “Form C”. For the same compound, the “Related Substances (%) Maximum individual impurity” value ([3]; 0 months) was 0.05%, the “Related Substances (%) Total impurity” value ([3]; 0 months) was 0.26% and the Crystal form ([3]; 3 months) was “Form C”. For the same compound, the “Related Substances (%) Maximum individual impurity” value ([3]; 3 months) was 0.05%, the “Related Substances (%) Total impurity” value ([3]; 3 months) was 0.27% and the Crystal form ([3]; 6 months) was “Form C”. For the same compound, the “Related Substances (%) Maximum individual impurity” value ([3]; 6 months) was 0.05%, the “Related Substances (%) Total impurity” value ([3]; 6 months) was 0.26% and the Crystal form ([3]; 9 months) was “Form C”. For the same compound, the “Related Substances (%) Maximum individual impurity” value ([3]; 9 months) was 0.05%, the “Related Substances (%) Total impurity” value ([3]; 9 months) was 0.26% and the Crystal form ([3]; 12 months) was “Form C”. The “Related Substances (%) Maximum individual impurity” value ([3]; 12 months) was 0.05%, the “Related Substances (%) Total impurity” value ([3]; 12 months) was 0.26% and the “stability (related substances)” value ([3]; within 12 months at 5° C.±3° C.) was “good stability”. For the same compound, the Crystal form ([4]; 0 months) was “Form C”, the “Related Substances (%) Maximum individual impurity” value ([4]; 0 months) was 0.05% and the “Related Substances (%) Total impurity” value ([4]; 0 months) was 0.26%. The Crystal form ([4]; 3 months) was “Form C”, the “Related Substances (%) Maximum individual impurity” value ([4]; 3 months) was 0.05% and the “Related Substances (%) Total impurity” value ([4]; 3 months) was 0.26%. The Crystal form ([4]; 6 months) was “Form C”, the “Related Substances (%) Maximum individual impurity” value ([4]; 6 months) was 0.05% and the “Related Substances (%) Total impurity” value ([4]; 6 months) was 0.27%. For the same compound, the Crystal form ([4]; 9 months) was “Form C”, the “Related Substances (%) Maximum individual impurity” value ([4]; 9 months) was 0.05% and the “Related Substances (%) Total impurity” value ([4]; 9 months) was 0.25%. For the same compound, the Crystal form ([4]; 12 months) was “Form C”, the “Related Substances (%) Maximum individual impurity” value ([4]; 12 months) was 0.05% and the “Related Substances (%) Total impurity” value ([4]; 12 months) was 0.26%. For the same compound, the “stability (related substances)” value ([4]; within 12 months at 30° C.±2° C.) was “good stability”, the Crystal form ([5]; 0 months) was “Form C” and the “Related Substances (%) Maximum individual impurity” value ([5]; 0 months) was 0.05%. The “Related Substances (%) Total impurity” value ([5]; 0 months) was 0.26%, the Crystal form ([5]; 3 months) was “Form C” and the “Related Substances (%) Maximum individual impurity” value ([5]; 3 months) was 0.05%. The “Related Substances (%) Total impurity” value ([5]; 3 months) was 0.27%, the Crystal form ([5]; 6 months) was “Form C” and the “Related Substances (%) Maximum individual impurity” value ([5]; 6 months) was 0.05%. For the same compound, the “Related Substances (%) Total impurity” value ([5]; 6 months) was 0.26%, the Crystal form ([5]; 9 months) was “Form C” and the “Related Substances (%) Maximum individual impurity” value ([5]; 9 months) was 0.05%. The “Related Substances (%) Total impurity” value ([5]; 9 months) was 0.26%, the Crystal form ([5]; 12 months) was “Form C” and the “Related Substances (%) Maximum individual impurity” value ([5]; 12 months) was 0.05%. The “Related Substances (%) Total impurity” value ([5]; 12 months) was 0.27%, the “stability (related substances)” value ([5]; within 12 months at 25° C.±2° C.) was “good stability” and the “crystal form stability (XRPD)” value ([6]; accelerated (40° C., 75% RH)) was “no change in crystal form”. The “crystal form stability (XRPD)” value ([6]; high humidity (25° C., 92.5% RH)) was “no change in crystal form”, the “crystal form stability (XRPD)” value ([6]; high temperature (60° C.)) was “no change in crystal form” and the “crystal form stability (XRPD)” value ([6]; light (25° C., 4500 Lux)) was “no change in crystal form”.

For `[2H]C([2H])([2H])[C@@H]1CCc2c(Oc3c(Cl)cc(-n4nc(C#N)c(=O)[nH]c4=O)cc3Cl)n[nH]c(=O)c21` [Form U, (R)-2-(3,5-dichloro-4-((7-(methyl-d3)-1-oxo-2,5,6,7-tetrahydro-1H-cyclopenta [d]pyridazin-4-yl)oxy)phenyl)-3,5-dioxo-2,3,4,5-tetrahydro-1,2,4-triazine-6-carbonitrile], the “crystal form after leaving to stand” value [7] was “Form L”, the “crystal form after thermal crystal transformation” value ([8]; heated to 250° C.) was “Form C” and the “Results (crystal form after thermal crystal transformation, XRPD)” value ([8]; target temperature 250° C., heating rate 10° C./min, holding time 1 min) was “Form C”.
